Results published in paper PMC8740820 (Toxicology and applied pharmacology, 2014).
“Also recorded” adds a separate entry of the source. Like-named read-outs stand apart in the source and are kept apart here.

How the values were obtained:
[1] = molecular target: T1, zfERα (Danio rerio, UniProt P57717); assay: HELN-zfERα luciferase transactivation assay; settings: for potency profile among zfER subtypes: Supplementary Fig. 2A and data not shown
T1 sequence (P57717 1-569): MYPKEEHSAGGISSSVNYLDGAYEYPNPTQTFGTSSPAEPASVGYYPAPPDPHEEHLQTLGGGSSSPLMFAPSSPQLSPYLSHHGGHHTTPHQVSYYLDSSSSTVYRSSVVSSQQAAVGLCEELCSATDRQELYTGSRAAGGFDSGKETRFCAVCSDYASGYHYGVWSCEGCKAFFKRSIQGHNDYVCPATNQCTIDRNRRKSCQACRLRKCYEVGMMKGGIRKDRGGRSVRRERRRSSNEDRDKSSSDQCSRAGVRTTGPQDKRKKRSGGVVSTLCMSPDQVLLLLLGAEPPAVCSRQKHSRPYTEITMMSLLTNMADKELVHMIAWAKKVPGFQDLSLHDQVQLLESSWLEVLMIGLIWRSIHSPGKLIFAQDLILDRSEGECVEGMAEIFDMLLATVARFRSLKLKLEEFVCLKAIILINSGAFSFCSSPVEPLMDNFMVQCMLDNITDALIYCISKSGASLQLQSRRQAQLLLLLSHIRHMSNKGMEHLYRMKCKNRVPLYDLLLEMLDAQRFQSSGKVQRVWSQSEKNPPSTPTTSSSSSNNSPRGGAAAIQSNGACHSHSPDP

[2] = molecular target: T2, zfERβ2 (Danio rerio, UniProt Q7ZU32); assay: HELN-zfERβ2 transcriptional inhibition; assay type: cell-based, zebrafish
[3] = molecular target: T3, zfERβ1 (Danio rerio, UniProt Q5PR29); assay type: cell-based, zebrafish; settings: HELN-zfERβ1
[4] = molecular target: hERβ (Homo sapiens, UniProt Q92731); settings: ref Escande et al., 2006; cited from earlier work
[5] = molecular target: T3, zfERβ1; settings: for agonistic activity on zfERβ1 (in words): HELN-zfERβ1; for EC50: read-out: zfERβ1 EC50
[6] = molecular target: T1, zfERα; assay: HELN-zfERα transcriptional inhibition; assay type: cell-based, zebrafish
[7] = test system: 5×ERE:GFP reporter; settings: 5×ERE:GFP zebrafish larvae, cited from earlier work; for tissue of GFP expression: ref Gorelik et al., 2014
[8] = molecular target: T2, zfERβ2; settings: for agonistic activity on zfERβ2 (in words): HELN-zfERβ2; for EC50: read-out: zfERβ2 EC50
[9] = molecular target: T2, zfERβ2; assay: cell-based; settings: zfERβ2 EC50, HELN-zfERβ2, 28 °C
[10] = molecular target: T3, zfERβ1; assay: cell-based; settings: zfERβ1 EC50, HELN-zfERβ1, 28 °C
[11] = molecular target: T4, hERα (Homo sapiens, UniProt P03372); settings: HELN-hERα compared to hERβ, ref Escande et al., 2006, cited from earlier work
T4 sequence (P03372 1-595): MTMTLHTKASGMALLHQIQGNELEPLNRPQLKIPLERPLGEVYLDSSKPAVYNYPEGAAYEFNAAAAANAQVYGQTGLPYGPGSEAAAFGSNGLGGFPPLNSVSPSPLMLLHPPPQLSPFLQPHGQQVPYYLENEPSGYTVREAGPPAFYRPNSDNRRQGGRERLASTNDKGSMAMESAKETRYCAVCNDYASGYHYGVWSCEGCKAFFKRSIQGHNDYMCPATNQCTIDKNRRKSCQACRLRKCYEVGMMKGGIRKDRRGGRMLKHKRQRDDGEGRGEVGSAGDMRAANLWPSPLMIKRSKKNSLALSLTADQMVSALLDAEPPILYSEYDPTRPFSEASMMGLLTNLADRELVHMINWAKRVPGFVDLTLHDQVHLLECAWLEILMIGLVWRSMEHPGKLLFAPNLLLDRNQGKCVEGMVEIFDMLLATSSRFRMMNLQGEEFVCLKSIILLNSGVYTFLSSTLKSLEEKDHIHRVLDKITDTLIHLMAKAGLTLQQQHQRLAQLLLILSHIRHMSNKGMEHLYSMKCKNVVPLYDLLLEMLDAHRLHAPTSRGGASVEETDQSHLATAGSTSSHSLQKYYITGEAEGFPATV

[12] = molecular target: T1, zfERα; settings: zebrafish liver-derived cell lines; ref Cosnefroy et al. (2012); cited from earlier work

Chain of hERβ (Q92731 whole entry): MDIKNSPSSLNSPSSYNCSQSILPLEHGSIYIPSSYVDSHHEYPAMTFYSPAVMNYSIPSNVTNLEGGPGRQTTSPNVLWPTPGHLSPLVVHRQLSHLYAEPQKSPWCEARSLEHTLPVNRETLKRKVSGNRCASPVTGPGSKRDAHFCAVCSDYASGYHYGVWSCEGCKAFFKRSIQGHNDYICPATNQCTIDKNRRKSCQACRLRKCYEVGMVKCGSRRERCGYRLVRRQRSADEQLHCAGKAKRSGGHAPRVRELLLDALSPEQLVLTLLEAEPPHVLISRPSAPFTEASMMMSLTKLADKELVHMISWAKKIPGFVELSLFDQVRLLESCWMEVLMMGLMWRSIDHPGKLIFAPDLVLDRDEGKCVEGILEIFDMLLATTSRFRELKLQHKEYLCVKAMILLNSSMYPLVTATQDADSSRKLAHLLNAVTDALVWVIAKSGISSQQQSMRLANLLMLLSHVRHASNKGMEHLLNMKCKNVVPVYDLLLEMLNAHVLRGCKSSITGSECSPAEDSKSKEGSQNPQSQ

## C[C@H]1CCC[C@@H](O)CCCCCc2cc(O)cc(O)c2C(=O)O1 [β-zearalanol]
[1]
  potency profile among zfER subtypes: zfERα potency > zfERβ1 potency ≥ β2 potency

## CCCc1c(-c2ccc(O)cc2)nn(-c2ccc(O)cc2)c1-c1ccc(O)cc1 [PPT, 4,4′,4″-(4-Propyl-[^1H]-pyrazole-1,3,5-triyl)trisphenol]
[2]
  antagonistic activity on zfERβ2 (in words): partially antagonize
[3]
  antagonistic activity on zfERβ1 (in words): partially antagonize
[4]
  agonistic activity on hERβ (in words): unable to activate hERβ
[5]
  agonistic activity on zfERβ1 (in words): partially activated; also recorded: slightly activated
[6]
  antagonistic activity on zfERα (in words): full antagonistic activity
[7]
  tissue of GFP expression: GFP labeling of only the larval liver
[8]
  agonistic activity on zfERβ2 (in words): partially activated; also recorded: slightly activated
[1]; HELN-zfERα
  agonistic activity on zfERα (in words): did not activate zfERα at all; also recorded: devoid of agonistic activity

## CC(C)(C)CC(C)(C)c1ccc(O)cc1 [4-Tert-octylphenol, 4-tert-octylphenol]
[5]
  agonistic activity on zfERβ1 (in words): full agonists
[8]
  agonistic activity on zfERβ2 (in words): partial agonists

## C[C@]12CC[C@@H]3c4ccc(O)cc4CC[C@H]3[C@@H]1CCC2=O [E1, 1,3,5[10]-estratriene-3-ol-17-one]
[9]
  EC50: 12.1 nM

## C[C@H]1CCC[C@H](O)CCCCCc2cc(O)cc(O)c2C(=O)O1 [α-Zearalanol, α-zearalanol]
[5]; HELN-zfERβ1, 28 °C
  EC50: 0.71 nM

## C[C@H]1CCC[C@H](O)CCC/C=C/c2cc(O)cc(O)c2C(=O)O1 [α-Zearalenol, α-zearalenol]
[1]
  potency profile among zfER subtypes: zfERα potency > zfERβ1 potency ≥ β2 potency

## C[C@H]1CCCC(=O)CCCCCc2cc(O)cc(O)c2C(=O)O1 [zearalanone]
[1]
  potency profile among zfER subtypes: zfERα potency > zfERβ1 potency ≥ β2 potency

## CC(C)(c1ccc(O)cc1)c1ccc(O)cc1 [BPA, bisphenol A]
[5]
  agonistic activity on zfERβ1 (in words): partial agonist
[7]
  tissue of GFP expression: preferentially induced GFP expression in the heart valves
[8]
  agonistic activity on zfERβ2 (in words): partial agonist
[10]; text value in μM
  EC50: 1.89 µM
[1]; HELN-zfERα
  agonistic activity on zfERα (in words): partial agonist

## CCC(=C(c1ccc(O)cc1)c1ccc(OCCN(C)C)cc1)c1ccccc1 [4OH-tamoxifen, 1-[p-dimethylaminoethoxyphenyl]-1-(4-hydroxyphenyl)-2-phenyl-1-butene]
[2]
  antagonistic activity on zfERβ2 (in words): full antagonistic activity
[3]
  antagonistic activity on zfERβ1 (in words): full antagonistic activity
[5]
  agonistic activity on zfERβ1 (in words): No agonistic activity
[6]
  antagonistic activity on zfERα (in words): full antagonistic activity
[8]
  agonistic activity on zfERβ2 (in words): No agonistic activity
[1]
  agonistic activity on zfERα (in words): No agonistic activity

## O=C1C[C@@H](c2ccc(O)cc2)Oc2cc(O)ccc21 [Liquiritigenin, liquiritigenin]
[5]
  agonistic activity on zfERβ1 (in words): did not activate zfERβ1 at all
[1]; read-out: zfERα EC50, HELN-zfERα, 28 °C
  EC50: 563 nM

## C#C[C@]1(O)CC[C@H]2[C@@H]3CCc4cc(O)ccc4[C@H]3CC[C@@]21C [EE2, 17α-ethynyl-1,3,5[10]-estratriene-3,17β-diol]
[5]; HELN-zfERβ1, 37 °C
  EC50: 0.673 nM
[8]; HELN-zfERβ2, 28 °C
  EC50: ~0.031 nM
[8]; HELN-zfERβ2, 37 °C
  EC50: ~0.197 nM
[1]; read-out: zfERα EC50, HELN-zfERα, 31 °C
  EC50: 0.127 nM
[1]; read-out: zfERα EC50, HELN-zfERα, 34 °C
  EC50: 0.19 nM
[1]; read-out: zfERα EC50, HELN-zfERα, 37 °C
  EC50: 0.947 nM

## C[C@]12CC[C@@H]3c4ccc(O)cc4C[C@@H](CCCCCCCCC[S+]([O-])CCCC(F)(F)C(F)(F)F)[C@H]3[C@@H]1CC[C@@H]2O (stereo partly drawn) [ICI 182,780, 7α,17β-[9[(4,4,5,5,5-pentafluoropentyl)sulfinyl]nonyl]estra-1,3,5(10)-triene-3,17-diol]
[2]
  antagonistic activity on zfERβ2 (in words): full antagonistic activity
[3]
  antagonistic activity on zfERβ1 (in words): full antagonistic activity
[5]
  agonistic activity on zfERβ1 (in words): No agonistic activity
[6]
  antagonistic activity on zfERα (in words): full antagonistic activity
[6]; read-out: zfERα IC50, together with 1 nM E2, 28 °C
  IC50: 3 nM
[7]; ref Gorelik and Halpern., 2011
  effect on E2-induced fluorescence in liver: reduce the E2-induced fluorescence in liver
[8]
  agonistic activity on zfERβ2 (in words): No agonistic activity
[1]; HELN-zfERα
  agonistic activity on zfERα (in words): No agonistic activity

## N#CC(Cc1ccc(O)cc1)c1ccc(O)cc1 (stereo not shown) [DPN, 2,3-bis(4-hydroxyphenyl)-propionitrile]
[7]
  tissue of GFP expression: preferentially induced GFP expression in the heart valves

## O=c1c(-c2ccc(O)cc2)coc2cc(O)cc(O)c12 [Genistein, 40,5,7-trihydroxyisoflavone]
[7]
  tissue of GFP expression: preferentially induced GFP expression in the heart valves

## C[C@]12CC[C@@H]3c4ccc(O)cc4CC[C@H]3[C@@H]1C[C@H]1OC(=O)C[C@]12O [16α-LE2, 3,17-Dihydroxy-19-nor-17α-pregna-1,3,5(10)-triene-21,16α-lactone]
[11]
  fold potency/selectivity in reporter gene activation hERα over hERβ: over 1000 fold
[11]; listed as 16α-E2
  fold potency/selectivity in reporter gene activation hERα over hERβ: 1000 fold
[1]; transactivation, 28 °C
  fold higher potency zfERα compared to zfERβ1: approximately 429 fold
  fold higher potency zfERα compared to zfERβ2: ~115 fold

## C[C@H]1CCC[C@@H](O)CCC/C=C/c2cc(O)cc(O)c2C(=O)O1 [β-zearalenol]
[1]
  potency profile among zfER subtypes: zfERα potency > zfERβ1 potency ≥ β2 potency

## Cc1c(-c2ccc(O)cc2)nn(-c2ccc(O)cc2)c1-c1ccc(OCCN2CCCCC2)cc1.Cl.Cl [MPP, 1,3-bis (4-hydroxyphenyl)-4-methyl-5-[4-(2-piperidinylethoxy)phenol]-1H-pyrazole dihydrochloride]
[3]
  antagonistic activity on zfERβ1 (in words): slight zfERβ1 selectivity

## C[C@H]1CCCC(=O)CCC/C=C/c2cc(O)cc(O)c2C(=O)O1 [zearalenone]
[1]
  potency profile among zfER subtypes: zfERα potency > zfERβ1 potency ≥ β2 potency

## O=C(c1ccc(O)cc1O)c1ccc(O)cc1O [BP2, 2,2′,4,4′-tetrahydroxybenzophenone]
[5]
  agonistic activity on zfERβ1 (in words): full agonist
[9]
  EC50: ~233 nM
[8]
  agonistic activity on zfERβ2 (in words): full agonist
[8]; transactivation, 28 °C
  fold higher potency zfERβ2 compared to zfERβ1: 3 fold
[10]
  EC50: ~0.803 µM
[1]; HELN-zfERα
  agonistic activity on zfERα (in words): full agonist
[1]; transactivation, 28 °C
  fold higher potency zfERα compared to zfERβ1: 3 fold
[1]; zfERα EC50, HELN-zfERα, 28 °C
  EC50: ~251 nM
[12]
  fold higher potency zfERα compared to zfERβ1: ~2 fold
  fold higher potency zfERα compared to zfERβ2: approximately 1.36 fold
